# Counter-ions that a name gives are not always drawn.
# Experiments:
# [1] = tested on: spontaneous hypertendus male rats of the Okamto strain; assay: Antihypertensive activity in spontaneously hypertensive rats, oral (tail arterial pressure); type: in vivo, rat; conditions: 50 mg/kg oral, hydrochloride form; for % Variation of arterial pressure 1 hour after administration: 1 h on first day; for % Variation of arterial pressure 4 hours after administration: 4 h on first day; for % Variation of arterial pressure, 10th day: 24 h after last administration
# Protocol: The arterial pressure was measured before and after the said administration on the rat's tail with a pneumatic collar connected to an electronic translator of pressure and the results of Table II compare the initial arterial pressure with the arterial pressure 1,4 hours of the first day and 24 hours after the last administration.
# [2] = tested on: male rats of the Sprague Dawley S.P.F. strain; assay: Hypotensive activity (carotid arterial pressure) in anesthetized rats, intravenous; type: in vivo, rat; conditions: 1 mg/kg i.v., hydrochloride form
# Protocol: The hypotensive activity was determined on groups of male rats of the Sprague Dawley S.P.F. strain weighing about 300 g which had been anesthesized with an intraveinous administration of 50 mg/kg of nembutal. The test products in their hydrochloride form were administered intraveinously in the jugular vein and the carotidiene arterial pressure was measured before and after the said administration. The variations between the initial arterial pressure and the pressure after the administration was determined as well as the time of duration of the activity and the results are reported in Table I.
# [3] = Acute toxicity (LD50) in mice, intraperitoneal; conditions: mouse, in vivo, ip, suspension in carboxymethyl cellulose, observed one week
# Protocol: The acute toxicity of the products was determined on groups of 10 mice weighing between 18 and 22 g and the products were intraperitoneally administered in a suspension in carboxymethyl cellulose.
# [4] = test was for 3 days administration
SMILES,% Variation of arterial pressure 1 hour after administration ([1]; 9 days administration),% Variation of arterial pressure 4 hours after administration ([1]; 9 days administration),"% Variation of arterial pressure, 10th day ([1]; 9 days administration)",% change in arterial pressure ([2]; at 5 min),% change in arterial pressure ([2]; at 60 min),LD50 at 168 h [3],% change in arterial pressure ([2]; at 1 min),% change in arterial pressure ([2]; at 15 min),"% Variation of arterial pressure 1 hour after administration [1, 4]","% Variation of arterial pressure 4 hours after administration [1, 4]","% Variation of arterial pressure, 10th day [1, 4]",% change in arterial pressure ([2]; at 10 min),% change in arterial pressure ([2]; at 30 min),% change in arterial pressure ([2]; at 45 min)
"O=C1Nc2ccccc2C1C1CCN(C[C@H](O)[C@H]2COc3ccccc3O2)CC1 (relative stereo) [Example 2, (dl) erythro 1,3-dihydro-3-{1-[2-(2,3-dihydro-1,4-benzodioxin-2-yl)-2-hydroxyethyl]-piperidin-4-yl}-2H-indol-2-one hydrochloride]",-23%,-22%,-9%,-30%,-20%,~125 mg/kg,,,,,,,,
"O=C1Nc2ccccc2C1C1CCN(C[C@H](O)[C@@H]2COc3ccccc3O2)CC1 (relative stereo) [Example 3, (dl) threo 1,3-dihydro-3-{1-[2-(2,3-dihydro-1,4-benzodioxin-2-yl)-2-hydroxyethyl]-piperidin-4-yl}-2H-indol-2-one hydrochloride]",,,,,,~125 mg/kg,-20%,-10%,,,,,,
"CN1C(=O)C(C2CCN(C[C@H](O)[C@H]3COc4ccccc4O3)CC2)c2ccccc21 (relative stereo) [Example 4, (dl) erythro 1,3-dihydro-3-{1-[2-(2,3-dihydro-1,4-benzodioxin-2-yl)-2-hydroxyethyl]-piperidin-4-yl}-1-methyl-2H-indol-2-one hydrochloride]",,,,-23%,,~200 mg/kg,-28%,,-23%,-31%,-16%,-26%,-24%,
"Cl.O=C1Nc2ccccc2C1C1CCN(CC(O)C2COc3ccccc3O2)CC1 (centres unmarked) [Example 1, 3-{1-[2-(2,3-dihydro-1,4-benzodioxin-2-yl)-2-hydroxyethyl]-piperidin-4-yl}-1,3-dihydro-2H-indol-2-one hydrochloride]",-29%,-27%,-8%,,,~150 mg/kg,-20%,,,,,,,-10%

# Source: patent US4224333A, “Antihypertensive 2H-indol-2-ones” (Roussel Uclaf, priority 1978, dated 1980)
